In patent US5093371A, “Naphthyl ketone inhibitors of cholesterol esterase and their use as hypolipidemic and hypocaloric agents” (University of Iowa Research Foundation, priority 1990, dated 1992):

Target: Cholesterol esterase (CEase)
Experiment: Inhibition of CEase-catalyzed hydrolysis of p-nitrophenylbutyrate (PNPB)
Type: biochemical
Details: for Ki: 25.0±0.1 C, pH 7.3, 0.1 M sodium phosphate, 1 mM Triton X100, substrate PNPB, read-out: Ki (inhibition constants for difluoroketone inhibitors of cholesterol esterase)
Description: The CEase-catalyzed hydrolysis of the water-soluble substrate p-nitrophenylbutyrate (PNPB) is a reaction that is routinely used to characterize inhibitors. The reaction is followed at 25.0±0.1.C and pH 7.3 in 0.1 M sodium phosphate buffer that contains 0.1 N NaC1 , 1 mM Triton X100, and the appropriate concentrations of CEase and PNPB. Inhibitor characterization occurs in two stages: (a) the form of the inhibition is determined by fitting substrate timecourse data to the integrated form of the Michaelis-Menten equation by nonlinear-least squares methods: [formula] Reactions are run in the absence and presence of inhibitor. Lineweaver-Burk plots of the data are constructed, as shown in FIG. 1 for inhibition by iododifluoromethyl 2-naphthyl ketone. (b) The dissociation constant of the CEase-inhibitor complex, Ki, is determined by one of two methods. In the first (Method A), […] is calculated from a replot of the apparent Km values (determined by fitting timecourses to equation (1)) versus inhibitor concentration. The replot is described by equation 2: [formula] […] In the second approach (Method B), initial velocity (Vi) versus inhibitor concentration data are fit by nonlinear-least squares to equation 3: [formula] […] The apparent Ki is then used to calculate the actual Ki from equation 4:
Ki =Ki^app /(1+[S]/Km) (4)
In equation 4 [S] is the concentration of the substrate PNPB and Km, the Michaelis constant for CEase-catalyzed hydrolysis of PNPB, is 0.09 mM.

| Ki | CEase inhibition (in words) (summary of Table I Ki values) | Km (Michaelis constant used in equation 4) | Structure (SMILES) |
| --- | --- | --- | --- |
| 2000 nM | – | – | O=C(c1ccc2ccccc2c1)C(F)(F)Cl [Compound 1, Chlorodifluoromethyl 2-Naphthyl Ketone] |
| 6000 nM | – | – | COc1ccc2cc(C(=O)C(F)(F)Cl)ccc2c1 [Compound 2, Chlorodifluoromethyl 2-(6-Methoxy)naphthyl Ketone] |
| 800 nM | – | – | O=C(c1ccc2ccccc2c1)C(F)(F)I [Compound 3, Iododifluoromethyl 2-Naphthyl Ketone] |
| 270 nM | – | – | CCCCC(F)(F)C(=O)c1ccc2ccccc2c1 [Compound 4, 1,1-Difluoropentyl 2-Naphthyl Ketone] |
| 380 nM | – | – | CCCCC(F)(F)C(=O)c1ccc2cc(OC)ccc2c1 [Compound 5, 1,1-Difluoropentyl 2-(6-Methoxy)naphthyl Ketone] |
| 80 nM | most potent inhibitor | – | CCCCCC(F)(F)C(=O)c1ccc2ccccc2c1 [Compound 6, 1,1-Difluorohexyl 2-Naphthyl Ketone] |
| – | – | 90 µM | CCCC(=O)Oc1ccc([N+](=O)[O-])cc1 [PNPB, p-nitrophenylbutyrate, reference compound] |
